Experiments:
physchem [1] = experiment: physchem
clinical = conditions: human, in vivo, po
physchem [2] = conditions: octanol/water
[3] = octanol/water

CNCCC[C@]12CC[C@H](c3ccccc31)c1ccccc12
pKa (physchem [1]): 10.5
bioavailability (clinical; F): 79%
logD (physchem [2]; pH 6.5, logD): 0.52
delta logD [3]: -0.9

CNS(=O)(=O)Cc1ccc2[nH]cc(CCN(C)C)c2c1
pKa (physchem [1]): 9.4
bioavailability (clinical; F): < 20%
logD (physchem [2]; pH 6.5, logD): -2.07
delta logD [3]: -0.9

CC(C)(C)NC(=O)C1CC[C@H]2[C@]3(C)CC[C@H]4NC(=O)C=C[C@]4(C)[C@H]3CC[C@]12C (some centres not stated)
bioavailability (clinical; F): 79%
logD (physchem [2]; pH 6.5, logD): 3.03
delta logD [3]: 0

CO/C(O)=C1\C(C)=NC(C)=C(C(=O)OCC(C)C)C1c1ccccc1[N+](=O)[O-] (configuration not stated)
bioavailability (clinical; F): < 20%
logD (physchem [2]; pH 6.5, logD): 1.58
delta logD [3]: 0

CC(C)=CCN1CC[C@@]2(C)c3cc(O)ccc3C[C@@H]1[C@@H]2C
pKa (physchem [1]): 8.8
bioavailability (clinical): 49%
logD (physchem [2]; pH 6.5): 1.05
delta logD [3]: -0.88

Nc1nc(N)c2nc(-c3ccccc3)c(N)nc2n1
pKa (physchem [1]): 6.2
bioavailability (clinical; F): 79%
logD (physchem [2]; pH 6.5, logD): 0.8
delta logD [3]: -0.15

CN(C)CCC=C1c2ccccc2CCc2ccccc21 [AMITRIPTYLINE]
bioavailability (clinical): 49%
logD (physchem [2]; pH 6.5): 2.14
delta logD [3]: -0.9

CC(=O)Oc1ccccc1C(=O)O [ASPIRIN]
bioavailability (clinical; F): 79%
logD (physchem [2]; pH 6.5, logD): -1.81
delta logD [3]: 0.9

C[C@H]1C[C@H]2[C@@H]3CCC4=CC(=O)C=C[C@]4(C)[C@@]3(F)[C@@H](O)C[C@]2(C)[C@@]1(O)C(=O)CO [BETAMETHASONE]
logD (physchem [2]; pH 6.5, logD): 1.94
delta logD [3]: 0

CNC1=Nc2ccc(Cl)cc2C(c2ccccc2)=[N+]([O-])C1 [CHLORDIAZEPOXIDE]
pKa (physchem [1]): 4.8
bioavailability (clinical): > 80%
logD (physchem [2]; pH 6.5): 2.43
delta logD [3]: -0.01

Cc1ncsc1CCCl [CLOMETHIAZOLE]
bioavailability (clinical): < 20%
logD (physchem [2]; pH 6.5): 2.12
delta logD [3]: 0

O=C1CN=C(c2ccccc2Cl)c2cc([N+](=O)[O-])ccc2N1 [CLONAZEPAM]
bioavailability (clinical): > 80%
logD (physchem [2]; pH 6.5): 2.41
delta logD [3]: 0

Clc1cccc(Cl)c1N=C1NCCN1 [CLONIDINE]
pKa (physchem [1]): 8
bioavailability (clinical; F): > 80%
logD (physchem [2]; pH 6.5, logD): 0.06
delta logD [3]: -0.82

CN1CCN(C2=Nc3cc(Cl)ccc3Nc3ccccc32)CC1 [CLOZAPINE]
bioavailability (clinical): 79%
logD (physchem [2]; pH 6.5): 1.81
delta logD [3]: -0.81

O=P1(N(CCCl)CCCl)NCCCO1 (configuration not stated) [CYCLOPHOSPHAMIDE ANHYDROUS]
bioavailability (clinical): > 80%
logD (physchem [2]; pH 6.5): 0.63
delta logD [3]: 0

C[C@@H]1C[C@H]2[C@@H]3CCC4=CC(=O)C=C[C@]4(C)[C@@]3(F)[C@@H](O)C[C@]2(C)[C@@]1(O)C(=O)CO [DEXAMETHASONE]
logD (physchem [2]; pH 6.5, logD): 1.83
delta logD [3]: 0

CC(CCc1ccc(O)cc1)NCCc1ccc(O)c(O)c1 (configuration not stated) [DOBUTAMINE]
pKa (physchem [1]): 9.5
bioavailability (clinical; F): < 20%
logD (physchem [2]; pH 6.5, logD): -0.48
delta logD [3]: -0.9

NCCc1ccc(O)c(O)c1 [DOPAMINE]
pKa (physchem [1]): 8.9
bioavailability (clinical; F): < 20%
logD (physchem [2]; pH 6.5, logD): -3.37
delta logD [3]: -0.9

CCCCCc1cc(O)c2c(c1)OC(C)(C)[C@@H]1CCC(C)=C[C@@H]21 [DRONABINOL]
bioavailability (clinical): < 20%
logD (physchem [2]; pH 6.5): 4.49
delta logD [3]: 0

CNC[C@H](O)c1ccc(O)c(O)c1 [EPINEPHRINE]
pKa (physchem [1]): 9.9
bioavailability (clinical; F): < 20%
logD (physchem [2]; pH 6.5, logD): -3.49
delta logD [3]: -0.9

C#C[C@]1(O)CC[C@H]2[C@@H]3CCc4cc(O)ccc4[C@H]3CC[C@@]21C [ETHINYL ESTRADIOL]
bioavailability (clinical; F): 49%
logD (physchem [2]; pH 6.5, logD): 3.67
delta logD [3]: 0

CCC1(C)CC(=O)NC1=O (configuration not stated) [ETHOSUXIMIDE]
bioavailability (clinical): > 80%
logD (physchem [2]; pH 6.5): -0.33
delta logD [3]: 0

CCNCC(O)c1cccc(O)c1 (configuration not stated) [ETILEFRINE]
pKa (physchem [1]): 9.8
bioavailability (clinical): 49%
logD (physchem [2]; pH 6.5): -2.86
delta logD [3]: -0.9

Nc1nc(=O)[nH]cc1F [FLUCYTOSINE]
bioavailability (clinical; F): > 80%
logD (physchem [2]; pH 6.5, logD): -1.65
delta logD [3]: 0

O=C(CCCN1CCC(O)(c2ccc(Cl)cc2)CC1)c1ccc(F)cc1 [HALOPERIDOL]
bioavailability (clinical; F): 79%
logD (physchem [2]; pH 6.5, logD): 1.42
delta logD [3]: -0.86

NNC(=O)c1ccncc1 [ISONIAZID]
bioavailability (clinical; F): > 80%
logD (physchem [2]; pH 6.5, logD): -0.7
delta logD [3]: 0

C[C@H]1C[C@@H]2[C@H]([C@@H](O)C[C@@]3(C)[C@H]2CC[C@]3(O)C(=O)CO)[C@@]2(C)C=CC(=O)C=C12 [METHYLPREDNISOLONE]
bioavailability (clinical; F): > 80%
logD (physchem [2]; pH 6.5, logD): 1.66
delta logD [3]: 0

CN1CCN2c3ccccc3Cc3ccccc3C2C1 (configuration not stated) [MIANSERIN]
bioavailability (clinical; F): 49%
logD (physchem [2]; pH 6.5, logD): 2.78
delta logD [3]: -0.52

C=CCN1CC[C@]23c4c5ccc(O)c4O[C@H]2C(=O)CC[C@@]3(O)[C@H]1C5 [NALOXONE]
bioavailability (clinical): < 20%
logD (physchem [2]; pH 6.5): 0.64
delta logD [3]: -0.81

COC(=O)C1=C(C#N)NC(C)=C(C(=O)OC(C)C)C1c1cccc([N+](=O)[O-])c1 (configuration not stated) [NILVADIPINE]
bioavailability (clinical; F): < 20%
logD (physchem [2]; pH 6.5, logD): 1.99
delta logD [3]: 0

COCCOC(=O)C1=C(C)NC(C)=C(C(=O)OC(C)C)C1c1cccc([N+](=O)[O-])c1 (configuration not stated) [NIMODIPINE]
bioavailability (clinical; F): < 20%
logD (physchem [2]; pH 6.5, logD): 0.73
delta logD [3]: 0

O=C1CN=C(c2ccccc2)c2cc([N+](=O)[O-])ccc2N1 [NITRAZEPAM]
bioavailability (clinical): 79%
logD (physchem [2]; pH 6.5): 2.25
delta logD [3]: 0

O=C1CN(/N=C/c2ccc([N+](=O)[O-])o2)C(=O)N1 [NITROFURANTOIN]
bioavailability (clinical; F): > 80%
logD (physchem [2]; pH 6.5, logD): -0.47
delta logD [3]: 0

C#C[C@]1(O)CC[C@H]2[C@@H]3CCC4=CC(=O)CC[C@@H]4[C@H]3CC[C@@]21C [NORETHINDRONE]
bioavailability (clinical; F): 79%
logD (physchem [2]; pH 6.5, logD): 2.97
delta logD [3]: 0

CNCCC=C1c2ccccc2CCc2ccccc21 [NORTRIPTYLINE]
bioavailability (clinical; F): 79%
logD (physchem [2]; pH 6.5, logD): 1.08
delta logD [3]: -0.9

CC(=O)CCCCn1c(=O)c2c(ncn2C)n(C)c1=O [PENTOXIFYLLINE]
bioavailability (clinical; F): 49%
logD (physchem [2]; pH 6.5, logD): 0.29
delta logD [3]: 0

CCC1(c2ccccc2)C(=O)NC(=O)NC1=O [PHENOBARBITAL]
bioavailability (clinical): > 80%
logD (physchem [2]; pH 6.5): 1.43
delta logD [3]: 0.21

CCC1(c2ccccc2)C(=O)NCNC1=O [PRIMIDONE]
bioavailability (clinical; F): > 80%
logD (physchem [2]; pH 6.5, logD): 0.91
delta logD [3]: 0

CC(C)(Sc1cc(C(C)(C)C)c(O)c(C(C)(C)C)c1)Sc1cc(C(C)(C)C)c(O)c(C(C)(C)C)c1 [PROBUCOL]
bioavailability (clinical; F): < 20%
logD (physchem [2]; pH 6.5, logD): 7.29
delta logD [3]: 0

Cc1nc2n(c(=O)c1CCN1CCC(c3noc4cc(F)ccc34)CC1)CCCC2 [RISPERIDONE]
bioavailability (clinical): 79%
logD (physchem [2]; pH 6.5): 0.74
delta logD [3]: -0.9

CC(=O)S[C@@H]1CC2=CC(=O)CC[C@]2(C)[C@H]2CC[C@@]3(C)[C@@H](CC[C@@]34CCC(=O)O4)[C@H]12 [SPIRONOLACTONE]
bioavailability (clinical; F): 49%
logD (physchem [2]; pH 6.5, logD): 2.78
delta logD [3]: 0

COc1cc2nc(N3CCN(C(=O)C4CCCO4)CC3)nc(N)c2cc1OC (configuration not stated) [TERAZOSIN]
bioavailability (clinical; F): > 80%
logD (physchem [2]; pH 6.5, logD): 0.29
delta logD [3]: -0.52

CC(C)(C)NCC(O)c1cc(O)cc(O)c1 (configuration not stated) [TERBUTALINE]
bioavailability (clinical; F): < 20%
logD (physchem [2]; pH 6.5, logD): -1.82
delta logD [3]: -0.89
